In patent US7041276B2, “Methods of screening agents for activity using teleosts” (priority 1998, dated 2006):
“Also recorded” adds a separate entry of the source.

How the values were obtained:
zebrafish embryos [1] = assay: Five-day zebrafish toxicity testing; type: in vivo
Method: Fertilized zebrafish embryos were obtained by natural spawning in our aquaculture facility. To reduce variations between batches, randomized samples of embryos from 3 or 4 independent matings were used. The test medium was prepared by combining 5 g of Instant Ocean Salt with 3 g of CaSO4 in 25 liters of distilled water, according to Westerfield, supra. The embryos were maintained in the test medium throughout the experiments. Embryos at 24 hours of development (with chorion) were exposed continuously for five days to chemical compounds at different concentrations of the chemical compounds and controls. In general, the concentrations ranged from 100 nanomolar (nM) to 100 micromolar (μM). Tests were repeated four times for each series of dilutions, and a standard deviation was calculated for each treatment (see “Statistical Methods” section). Ten embryos per concentration were exposed in a total volume of 1 ml (constant ratio of 100 μl/embryo) using a 24 multi-well plate. (Other sizes of multi-well plates, such as 96-well plates can also be used to facilitate screening.) The compounds were renewed daily. In all cases, 0.1% of dimethyl sulfoxide (DMSO) was used as a carrier solvent during the treatment. Controls with and without 0.1% DMSO were performed in all experiments. This approach has long been used to introduce anesthetics and other chemicals into fish embryos (Westerfield, supra).
Experiments were carried out at a constant temperature (28–28.5° C.) in the dark to protect the compounds from decomposition due to light exposure. Dead embryos were removed daily, counted, and used to calculate the Median Lethal Concentration (LC50, see “Statistical Methods” section herein). Each day, surviving embryos were analyzed visually under a dissecting binocular microscope (Zeiss, amplification 30–50×). Macroscopic malformations (such as axial defects, embryolethality, growth inhibition, general malformations, including microcephaly, macrocephaly, tail truncation, tail malformation, loss of axial structures, such as somites, etc.) were observed, classified, and counted to assess whole animal toxicity. Compounds that were lethal or induced these or any noted malformations or disruptions during development (e.g., during the first 5 days of development) were further examined for toxic effects on organs. The embryonic developmental stage that is affected by the toxic compound can be determined. Organ toxicity can be assessed in surviving embryos using in situ hybridization, enzymatic assays, and immunochemistry procedures.
Toxic activity in the kidney (Pronephros) can be assessed visually by colorimetric staining of the kidney of the treated whole animal (e.g., zebrafish). Zebrafish pronephros express high levels of the enzyme alkaline phosphatase that can be easily assayed using a chromogenic dye. To stain kidneys in zebrafish embryos, embryos were fixed with 2% paraformaldehyde overnight at 4° C. and then treated with methanol 100% for 30 minutes at room temperature. […]
For the concentrations tested with aspirin and dexamethasone in these studies, there was no partial lethality and the geometric mean of the parameters “no mortality” (0%) and “mortality” (100%) of the effect concentration was taken as the LC50 and binomial confidence limits were calculated according to Stephan, “Methods for Calculating LD50” in Aquatic Toxicology and Hazard Evaluation (F. L. Mayce and J. L. Hamelink eds.) ASTM STP 634, pp. 65–84. […]

mice and rats = settings: TOXNET Web Search and other sources; cited from earlier work
zebrafish embryos [2] = assay: Rescue of induced cell death activity; type: in vivo; settings: for opacity at two hours after the addition of 100 μM Ibuprofen / opaque cells at one hour after 100 μM Ibuprofen: yolk injection of 25 μM Caspase 3 inhibitor or PBS at 24 hours; for opaque cells at one hour after 100 μM Ibuprofen: Ibuprofen at 26 hours
Method: To determine if the teleost model could be used to screen for compounds which blocked or reduced cell death activity, embryos were microinjected with a Caspase 3 inhibitor (Calbiochem #264155) prior to exposure to Ibuprofen.
Specifically, embryos at 24 hours of development were dechorionated and microinjected with either 25 μM Caspase 3 inhibitor or PBS into the yolk. At 26 hours of development, embryos were exposed to 100 μM Ibuprofen by addition to the media.

zebrafish embryos [3] = assay: Fluorescent detection of cell death in live zebrafish embryos; type: in vivo; settings: 100 μM
Method: As an additional test of our cell death detection method, we also examined the ability of the dye to label cells in embryos treated with Ibuprofen, a cyclooxygenase inhibitor, which causes a characteristic pattern of cell death. This pattern consists of a posterior to anterior progression of dying cells as indicated by a progression of opacity changes in the cells of the embryo.
Embryos as 24 hours of development were pretreated for 1 hour with a 100 nanomolar concentration of the fluorescent dye (e.g., benzothiazolium-4-quinolium dye) in embryo media. The embryos were then exposed to 100 μM of Ibuprofen by addition to the media and examined by light and epifluorescence microscopy every 15 minutes for 2 hours. Control embryos were pretreated with the same concentration of dye, but were not exposed to the Ibuprofen. […] This pattern of fluorescently labeled cells was identical to the pattern observed for the opacity changes in the embryo.

zebrafish embryo = assay: First screening experiments for anti-angiogenic effects (compound added to fish culture media); type: in vivo; settings: for other effects / complications in the embryo / effect on blood vessel formation: added to the fish culture media; for effect on blood vessel formation: AP staining day three; for diffusion into the zebrafish embryo: after addition to the media
Method: On the third day of development, embryos were collected for alkaline phosphatase staining. Specifically, embryos were fixed in 4% paraformaldehyde and stained for endogenous alkaline phosphatase activity. Embryos were fixed for 2 hours at room temperature. The embryos were then washed two times in phosphate buffered saline (PBS) and dehydrated by immersion in 25%, 50%, 75% and 100% methanol in phosphate buffered saline with 0.1% Tween (PBT) to permeabilize the embryos. The embryos were then rehydrated and washed in 100% PBT. For staining, embryos were equilibrated in NTMT buffer (0.1M Tris-HCl pH 9.5; 50 mM MgCl; 0.1M NaCl; 0.1% Tween 20) at room temperature. After the embryos equilibrated, embryos were stained by adding 4.5 μl of 75 mg/ml nitro blue tetrazolium (NBT) and 3.5 μL of 50 mg/ml X-phosphate per ml. After staining for 10 minutes, all the blood vessels in the fish embryo were labeled (see FIGS. 2A–2C, 3A–3B, 4, 7). The staining reaction was stopped by addition of PBST. Embryos were then examined on a stereo-dissecting microscope. One advantage of using the zebrafish for this type of assay is that the subintestinal vessels, which are located over the yolk, are both sensitive to factors which effect vessel formation and easily assayed by this method (see, e.g., FIG. 7). The subintestinal vessels are normally present on the dorsolateral surface of the yolk of zebrafish embryos by 48 hours of development. They form a distinct basket shape that extends 50–100 μm from the ventral edge of the somite over the yolk. By assaying the subintestinal vessels at 72 hours of development (24 hours after the subintestinal vessels normally appear), normal variation in the timing of the vessel formation was avoided. The staining procedure is easily automated using commercially available instrumentation.
In our first set of screening experiments for anti-angiogenic effects, we examined the effect of fumagillin, a natural anti-angiogenesis chemical, on blood vessel formation in the zebrafish embryo. The compound was administered by addition to the fish culture media. […] Using the screening parameters described above, we identified two compounds that caused apparently specific anti-angiogenic effects. In addition, we identified 16 other compounds that caused a reduction of angiogenic vessel formation in addition to other effects.

zebrafish embryos [4] = assay: Microinjection of proteins into 24 hour embryos, effect on vessel formation; type: in vivo
Method: To examine the effects of proteins and protein fragments (and peptides and peptide fragments) on angiogenesis in teleost embryos, proteins (and protein fragments and peptide fragments) were directly injected into the circulation of 24 hour zebrafish embryos. Embryos were collected and dechorionated as described above. The embryos were then sorted into holding ramps made of 1% agarose in embryo water and oriented with the yolk ball projecting up. Microinjection injection was performed as follows: the proteins were suspended in PBS and backfilled into a pulled glass micropipet. The micropipet was then attached to a micromanipulator and a picospritzer (General Valve) attached to a nitrogen tank. Using the micromanipulator, the tip of the micropipet was inserted into the embryo and a small volume of protein solution was expelled from the tip using positive pressure. To determine if our animal model could be used effectively to screen for these compounds, we performed a series of experiments in which we injected one of two different proteins having opposing effects on vessel formation—human endostatin (O'Reilly et al., Cell 88(2):277–285 (1997)) and human vascular endothelial growth factor (VEGF)—into an embryo. Endostatin, a collagen XVIII fragment, is an endogenous protein with potent anti-angiogenic activity. […] In preliminary experiments, we injected VEGF protein either into the yolk ball or into the perivitelline space between the yolk and the periderm. Because the second location is in the path of the venous return, proteins end up in the circulation of the embryo. To backfill the injection pipettes, we used a 2 mg/ml solution of VEGF. […] This is consistent with observations in other vertebrates. Drake et al., Proc. Natl. Acad. Sci. USA 92(17):7657–7661 (1995); Fouquet et al., supra. Endostatin was injected into the zebrafish as was VEGF.

[5] = 24 hour embryos pretreated with dye
[6] = 2 mg/ml solution, 24 hour embryos, AP staining at 72 hours

In the case of `CC(=O)Oc1ccccc1C(=O)O` [Aspirin], the “Zebrafish LD50” value (zebrafish embryos [1]; embryos exposed continuously for five days from 24 hours of development) is given as 101 mg/L, the “Zebrafish specific toxicity observed” value (zebrafish embryos [1]; five-day exposure) is given as “teratogen,; also recorded: kidney,; also recorded: muscle; also recorded: erratic” and the “Mammalian models specific toxicity (from the literature)” value (mice and rats) is given as “kidney,; also recorded: ureter,; also recorded: cardio-; also recorded: cranio-; also recorded: musculo-”.

For `COC(=O)CC[C@H](NC(=O)[C@H](CC(=O)OC)NC(=O)OCc1ccccc1)C(=O)N[C@H](C(=O)N[C@@H](CC(=O)OC)C(=O)CF)C(C)C` [Caspase 3 inhibitor], the “survival by 24 hours after the introduction of 100 μM Ibuprofen” value (zebrafish embryos [2]; yolk injection of 25 μM Caspase 3 inhibitor) was “all of the experimental embryos were dead”, the “opacity at two hours after the addition of 100 μM Ibuprofen” value (zebrafish embryos [2]) was “still transparent” and the “opaque cells at one hour after 100 μM Ibuprofen” value (zebrafish embryos [2]) was “not in embryos injected with the Caspase inhibitor”.

With `CC(C)Cc1ccc(C(C)C(=O)O)cc1` (centres unmarked) [Ibuprofen] the “opacity at two hours after the addition of 100 μM Ibuprofen” value (zebrafish embryos [2]) was “completely opaque”, the “opaque cells at one hour after 100 μM Ibuprofen” value (zebrafish embryos [2]) was “opaque cells were observed” and the “fluorescently labeled (dead or dying) cells within 1 hour” value (zebrafish embryos [3]; 24 hour embryos pretreated with 100 nanomolar dye) was “fluorescently labeled cells were detected in the posterior tip of the tail”. The “fluorescently labeled cells at 1 hour and 30 minutes” value (zebrafish embryos [3]; [5]) was “labeled cells were detected in a large patch, extended from the tip of the tail to the level of the anus” and the “fluorescently labeled cells by two hours” value (zebrafish embryos [3]; [5]) was “fluorescently labeled cells could be seen throughout the embryo”.

With `CO[C@@H]1[C@H](OC(=O)/C=C/C=C/C=C/C=C/C(=O)O)CC[C@]2(CO2)[C@H]1[C@@]1(C)O[C@@H]1CC=C(C)C` [fumagillin] the “other effects / complications in the embryo” value (zebrafish embryo) was “pericardial edema, developmental delay, and axial defects”, the “effect on blood vessel formation” value (zebrafish embryo) was “reduction in angiogenesis” and the “diffusion into the zebrafish embryo” value (zebrafish embryo) was “capable of diffusing into the zebrafish embryo”.

In the case of Ovicillin, the “other effects / complications in the embryo” value (zebrafish embryo) was “pericardial edema”, the “effect on blood vessel formation” value (zebrafish embryo) was “reduction in the subintestinal vessels” and the “diffusion into the zebrafish embryo” value (zebrafish embryo) was “capable of diffusing into the zebrafish embryo”.

With VEGF the “angiogenic phenotypes after injection into the yolk” value (zebrafish embryos [4]; [6]) was “the appearance of long spikes projecting from the subintestinal vessel basket; also recorded: increased vessel diameters in the subintestinal basket” and the “effect after injection into the perivitelline space” value (zebrafish embryos [4]; [6]) was “disruption of vessel formation; also recorded: fusion of large vessels, inappropriate vessel formation”.

In the case of endostatin, the “effect on vessel formation after injection” value (zebrafish embryos [4]; injected into the zebrafish as was VEGF) was “inconsistent and thus uninterpretable”.
